Results from ChEMBL document CHEMBL1201862, “PubChem BioAssay data set” (2004).
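Five concentrations, 48 hours, 96-well plates. GI50 is the concentration that inhibits growth by half.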 The source made the active and inactive calls. Cut-off read from the data, not from the text of the source: active = GI50 up to about 1.1 µM and inactive = higher.

Experiments:
Test in all cases: growth of human tumour cells (NCI), 48 h
A498 = system: A498
DMS-273 = system: DMS-273
OVCAR-5 = system: OVCAR-5
SK-MEL-5 = system: SK-MEL-5
DLD-1 = system: DLD-1
CAKI-1 = system: CAKI-1
OVCAR-8 = system: OVCAR-8
CCRF-CEM = system: CCRF-CEM
DMS-114 = system: DMS-114
SF-295 = system: SF-295
U-251 = system: U-251
NCI/ADR-RES = system: NCI/ADR-RES
LOX IMVI = system: LOX IMVI
LXFL 529 = system: LXFL 529
MDA-MB-231 = system: MDA-MB-231
MDA-N = system: MDA-N
DU-145 = system: DU-145
Hs-578T = system: Hs-578T
PC-3 = system: PC-3
MDA-MB-435 = system: MDA-MB-435

SMILES | GI50 (A498) | GI50 (DMS-273) | GI50 (OVCAR-5) | GI50 (SK-MEL-5) | GI50 (DLD-1) | GI50 (CAKI-1) | GI50 (OVCAR-8) | GI50 (CCRF-CEM) | GI50 (DMS-114) | GI50 (SF-295) | GI50 (U-251) | GI50 (NCI/ADR-RES) | GI50 (LOX IMVI) | GI50 (LXFL 529) | GI50 (MDA-MB-231) | GI50 (MDA-N) | GI50 (DU-145) | GI50 (Hs-578T) | GI50 (PC-3) | GI50 (MDA-MB-435)
Cn1c(=O)c2c(nc3n2C(CCl)CO3)n(C)c1=O (stereo not given) | > 100 µM (inactive) | > 100 µM (inactive) | > 100 µM (inactive) | > 100 µM (inactive) | > 100 µM (inactive) | > 100 µM (inactive) | > 100 µM (inactive) | > 100 µM (inactive) | > 100 µM (inactive) | > 100 µM (inactive) | > 100 µM (inactive) |  |  |  |  |  |  |  |  | 
O=NN1C(c2ccccc2)C2CCCC(C2=O)C1c1ccccc1 (stereo not given) | 34 µM (inactive) | 23.8 µM (inactive) | 37.2 µM (inactive) | 18.7 µM (inactive) | 43.3 µM (inactive) | 41.4 µM (inactive) | 37.7 µM (inactive) | 28.3 µM (inactive) | 32.5 µM (inactive) | 30.8 µM (inactive) | 29.3 µM (inactive) | 32.7 µM (inactive) | 22.9 µM (inactive) |  |  |  |  |  |  | 
CC(C)(C)c1ccc(OCCOCCOc2ccc(C(C)(C)C)cc2S(N)(=O)=O)c(S(N)(=O)=O)c1 | 20.3 µM (inactive) | 72.6 µM (inactive) | > 100 µM (inactive) | 8.13 µM (inactive) | 99.5 µM (inactive) | > 100 µM (inactive) | > 100 µM (inactive) | > 100 µM (inactive) | 16.9 µM (inactive) | > 100 µM (inactive) | > 100 µM (inactive) |  | 23.7 µM (inactive) |  |  |  |  |  |  | 
O=c1n(C2CCCCC2)c(=C(Cl)Cl)c(=C(Cl)Cl)n1C1CCCCC1 | > 100 µM (inactive) | > 100 µM (inactive) | > 100 µM (inactive) | > 100 µM (inactive) | > 100 µM (inactive) |  | > 100 µM (inactive) | > 100 µM (inactive) | 53.1 µM (inactive) | > 100 µM (inactive) | > 100 µM (inactive) |  | > 100 µM (inactive) |  |  |  |  |  |  | 
COc1ccccc1NS(=O)(=O)c1cc(C(C)(C)C)ccc1OCCOc1ccc(C(C)(C)C)cc1S(=O)(=O)Nc1ccccc1OC | > 100 µM (inactive) | > 100 µM (inactive) | > 100 µM (inactive) | > 100 µM (inactive) | > 100 µM (inactive) | > 100 µM (inactive) | > 100 µM (inactive) | > 100 µM (inactive) | > 100 µM (inactive) | > 100 µM (inactive) | > 100 µM (inactive) |  | > 100 µM (inactive) |  |  |  |  |  |  | 
C/C(=N\NC(=O)C(N)=O)c1c(O)cc(C)oc1=O | > 100 µM (inactive) |  |  | > 100 µM (inactive) | > 100 µM (inactive) |  | > 100 µM (inactive) | > 100 µM (inactive) |  | > 100 µM (inactive) | > 100 µM (inactive) |  | > 100 µM (inactive) | > 100 µM (inactive) |  |  |  |  |  | 
CC12CCCC(C#N)(C1)OC2=O (stereo not given) | > 100 µM (inactive) | > 100 µM (inactive) | > 100 µM (inactive) | > 100 µM (inactive) | > 100 µM (inactive) | > 100 µM (inactive) | > 100 µM (inactive) | > 100 µM (inactive) |  | > 100 µM (inactive) | > 100 µM (inactive) |  |  | > 100 µM (inactive) |  |  |  |  |  | 
O=C1CS(=O)(=O)C(c2cccc(Oc3ccccc3)c2)N1c1ccccc1 (stereo not given) | 17.9 µM (inactive) |  | 31.6 µM (inactive) | 14.9 µM (inactive) |  | 20.5 µM (inactive) | 27 µM (inactive) | 34.8 µM (inactive) |  | 30.5 µM (inactive) | 16.6 µM (inactive) | 22 µM (inactive) | 16.5 µM (inactive) |  | 19.9 µM (inactive) | 17.9 µM (inactive) | 48 µM (inactive) | 28.4 µM (inactive) | 19.1 µM (inactive) | 27.4 µM (inactive)
CN(CCCCCl)P(=O)(OCc1ccc([N+](=O)[O-])o1)OC[C@H]1O[C@@H](n2cc(F)c(=O)[nH]c2=O)C[C@@H]1O (stereo not given in full) | 0.0236 µM (active) |  | > 44.5 µM (inactive) | 0.849 µM (active) |  | 0.0693 µM (active) | 0.352 µM (active) | 0.173 µM (active) |  | 0.0914 µM (active) | 1.63 µM (inactive) | 0.0658 µM (active) | 0.07 µM (active) |  | 12.9 µM (inactive) | 7.03 µM (inactive) | 0.569 µM (active) | 0.514 µM (active) | 4.34 µM (inactive) | 5.85 µM (inactive)
O=C1/C(=C\c2ccccc2)c2ccccc2N1Cc1ccccc1 | > 10 µM (inactive) |  | 10.4 µM (inactive) | 11 µM (inactive) |  | 6.67 µM (inactive) | 11.6 µM (inactive) | 3.15 µM (inactive) |  | 11.4 µM (inactive) | 8.69 µM (inactive) | 10.6 µM (inactive) | 7.45 µM (inactive) |  | 6.89 µM (inactive) | 5.18 µM (inactive) | 12.4 µM (inactive) | 5.14 µM (inactive) | 11.1 µM (inactive) | 3.72 µM (inactive)
C/C=C1/CN2CC[C@@H]3c4ccccc4N4[C@H](C(=O)OC)[C@H]1C[C@H]2[C@]34/C=C/C1=COC[C@@H]2[C@H]1C[C@H]1c3c(c4ccccc4n3C)C[C@@H]2N1C | 4.59 µM (inactive) |  | 4.33 µM (inactive) | 3.89 µM (inactive) |  | 4.1 µM (inactive) | 4.11 µM (inactive) | 5.31 µM (inactive) |  | 4.45 µM (inactive) | 3.72 µM (inactive) | 3.46 µM (inactive) | 4.19 µM (inactive) |  | 4.02 µM (inactive) | 2.32 µM (inactive) | 5.12 µM (inactive) | 4.48 µM (inactive) | 2.9 µM (inactive) | 3.26 µM (inactive)
Cn1c2c3ccc(Cl)cc3nc-2c(Cl)c2ccccc21 | 19.9 µM (inactive) |  | 17.3 µM (inactive) | 16.4 µM (inactive) |  | 17.3 µM (inactive) | 20.2 µM (inactive) | 3.86 µM (inactive) |  | 15.2 µM (inactive) | 10.9 µM (inactive) | 24.8 µM (inactive) | 13.3 µM (inactive) |  | 23.7 µM (inactive) | 20.2 µM (inactive) | 15.1 µM (inactive) | 40.6 µM (inactive) | 13.7 µM (inactive) | 18.1 µM (inactive)
O=C1c2ccccc2-c2nnc(-c3ccc(Cl)cc3)cc21 | > 10 µM (inactive) |  | > 10 µM (inactive) | > 10 µM (inactive) |  | > 10 µM (inactive) | > 10 µM (inactive) | > 10 µM (inactive) |  | > 10 µM (inactive) | > 10 µM (inactive) | > 10 µM (inactive) | > 10 µM (inactive) |  | > 10 µM (inactive) | > 10 µM (inactive) | > 10 µM (inactive) | > 10 µM (inactive) | > 10 µM (inactive) | > 10 µM (inactive)
CCOCC(=O)N[C@H]1CCc2cc(OC(=O)COCC)c(OC)c(OC)c2-c2ccc(SC)c(=O)cc21 | 0.0472 µM (active) |  | 0.604 µM (active) | 0.00478 µM (active) |  | 0.15 µM (active) | 0.0307 µM (active) | 0.0231 µM (active) |  | 0.0157 µM (active) | 0.0275 µM (active) | 1.87 µM (inactive) | 0.0303 µM (active) |  | 0.0274 µM (active) | 0.0022 µM (active) | 0.0222 µM (active) | 0.0122 µM (active) | 0.0224 µM (active) | 0.00195 µM (active)
O=[N+]([O-])c1ccc(-c2ccc(-c3csc(Nc4ccccn4)n3)o2)cc1 |  | 35.2 µM (inactive) | > 100 µM (inactive) |  | > 100 µM (inactive) | > 100 µM (inactive) | 64.7 µM (inactive) |  |  | 46.3 µM (inactive) | 13.8 µM (inactive) |  | 63.4 µM (inactive) | 25.1 µM (inactive) |  |  |  |  |  | 
Cc1cc(N(CCC#N)CCC#N)ccc1/C=C1\SC(=S)NC1=O | 49.8 µM (inactive) |  | 34.9 µM (inactive) | > 100 µM (inactive) |  | 41.4 µM (inactive) | 49.3 µM (inactive) | 25.9 µM (inactive) |  | 17.5 µM (inactive) | 42.5 µM (inactive) | > 100 µM (inactive) | > 100 µM (inactive) |  | > 100 µM (inactive) | > 100 µM (inactive) | > 100 µM (inactive) | 14.2 µM (inactive) | 36.8 µM (inactive) | 82.2 µM (inactive)
CC(=O)NC1C(OCc2ccccc2)OC(CO)C(O)C1OC(C)C(=O)N[C@@H](C)C(=O)N[C@H](CCC(=O)OCCNc1c2ccccc2nc2cccc([N+](=O)[O-])c12)C(N)=O (stereo not given in full) | 0.00501 µM (active) | 0.0016 µM (active) | 0.00206 µM (active) | 0.00239 µM (active) | 0.00139 µM (active) | 0.00625 µM (active) | 0.00235 µM (active) | 0.0189 µM (active) |  | 0.00427 µM (active) |  |  |  | 0.000622 µM (active) |  |  |  |  |  | 
C#Cc1ccccc1C(=O)OC | > 100 µM (inactive) | > 100 µM (inactive) | > 100 µM (inactive) | > 100 µM (inactive) | > 100 µM (inactive) |  | > 100 µM (inactive) | > 100 µM (inactive) | 89.9 µM (inactive) | > 100 µM (inactive) | > 100 µM (inactive) |  | > 100 µM (inactive) |  |  |  |  |  |  | 
C1CN(c2nc3c(nnc4nc(N5CCOCC5)sc43)s2)CCO1 | > 100 µM (inactive) |  | > 100 µM (inactive) | > 100 µM (inactive) |  | > 100 µM (inactive) | > 100 µM (inactive) | 52.8 µM (inactive) |  | > 100 µM (inactive) | 60.8 µM (inactive) | > 100 µM (inactive) | > 100 µM (inactive) |  | > 100 µM (inactive) | > 100 µM (inactive) | > 100 µM (inactive) | 53.6 µM (inactive) | > 100 µM (inactive) | > 100 µM (inactive)
O=c1[nH]c(-c2ccc([N+](=O)[O-])cc2)nc2ccc(Cl)cc12 |  | > 100 µM (inactive) | > 100 µM (inactive) | > 100 µM (inactive) |  |  | > 100 µM (inactive) |  |  | > 100 µM (inactive) | 54.6 µM (inactive) |  |  | 44.2 µM (inactive) |  |  |  |  |  | 
